Assay results reported in patent publication US10947210B2 (priority 2015, dated 2021).

These compounds were tested against HCV RNA-dependent RNA polymerase (NS5B) (Hepatitis C virus genotype 1b (isolate BK) (HCV), UniProt P26663) (assay: RNA-Dependent RNA HCV NS5B (polymerase) Assay and IC50 Determination). Settings: purified HCV NS5B polymerase, polyA:U16 substrate, 32P-UTP incorporation; read-out: IC50.
Sequence of HCV RNA-dependent RNA polymerase (NS5B) (P26663 2420-3010): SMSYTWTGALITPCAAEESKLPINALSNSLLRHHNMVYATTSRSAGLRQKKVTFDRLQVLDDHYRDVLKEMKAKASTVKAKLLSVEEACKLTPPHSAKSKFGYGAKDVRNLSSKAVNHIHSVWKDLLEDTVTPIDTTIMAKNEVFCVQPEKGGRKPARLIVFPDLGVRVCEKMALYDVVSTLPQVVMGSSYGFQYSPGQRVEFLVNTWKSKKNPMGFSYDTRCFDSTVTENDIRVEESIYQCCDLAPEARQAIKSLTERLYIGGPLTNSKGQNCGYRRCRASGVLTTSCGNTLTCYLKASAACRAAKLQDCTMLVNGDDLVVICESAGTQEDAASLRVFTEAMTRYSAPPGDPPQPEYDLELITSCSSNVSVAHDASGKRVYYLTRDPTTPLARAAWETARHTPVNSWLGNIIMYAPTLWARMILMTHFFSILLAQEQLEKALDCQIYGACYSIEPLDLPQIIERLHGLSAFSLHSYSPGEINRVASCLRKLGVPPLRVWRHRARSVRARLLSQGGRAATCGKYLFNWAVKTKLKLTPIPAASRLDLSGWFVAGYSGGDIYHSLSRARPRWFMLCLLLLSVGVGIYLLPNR
Assay type: biochemical
Procedure, shortened: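 Purified NS5B was incubated with 0.5 uM polyA:U16, 10 μM UTP plus ^32P-UTP in 50 mM Hepes-KOH pH 7.5, 5 mM MgCl2, 5 mM DTT, 2% glycerol and 0.01% Triton X-100. Inhibitor reactions ran 60 min at 37° C, and radiolabelled RNA product was quantified after filter capture. IC50 values were obtained from concentration series.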
Compound `CCOC(=O)c1cc(COCCOCCN(c2cc3oc(-c4ccc(F)cc4)c(C(=O)NC)c3cc2C2CC2)S(C)(=O)=O)ccc1F` [Compound 30-14, 5-[2-(2-{[5-Cyclopropyl-2-(4-fluoro-phenyl)-3-methylcarbamoyl-benzofuran-6-yl]-methanesulfonyl-amino}-ethoxy)-ethoxymethyl]-2-fluoro-benzoic acid ethyl ester] has an IC50 greater than 1 µM. For `CCCCCOC(=O)c1ccc(COCCOCCN(c2cc3oc(-c4ccc(F)cc4)c(C(=O)NC)c3cc2C2CC2)S(C)(=O)=O)cc1` [Compound 06-8B4, 4-[2-(2-{[5-Cyclopropyl-2-(4-fluoro-phenyl)-3-methylcarbamoyl-benzofuran-6-yl]-methanesulfonyl-amino}-ethoxy)-ethoxymethyl]-benzoic Acid Pentyl Ester], the IC50 was 0.1 to 1 µM. `CNC(=O)c1c(-c2ccc(F)cc2)oc2cc(N(CCOCCOCc3ccc(C(=O)OCSC)cc3)S(C)(=O)=O)c(C3CC3)cc12` [Compound 06-8B6, 4-[2-(2-{[5-Cyclopropyl-2-(4-fluoro-phenyl)-3-methylcarbamoyl-benzofuran-6-yl]-methanesulfonyl-amino}-ethoxy)-ethoxymethyl]-benzoic Acid Methylsulfanylmethyl Ester] was tested, and the IC50 was 0.1 to 1 µM. With `CNC(=O)c1c(-c2ccc(F)cc2)oc2cc(N(CCOCCOCCOCc3ccc(C(=O)O)cc3)S(C)(=O)=O)c(C3CC3)cc12` [Compound 06-7E, 4-{2-[2-(2-{[5-Cyclopropyl-2-(4-fluoro-phenyl)-3-methylcarbamoyl-benzofuran-6-yl]-methanesulfonyl-amino}-ethoxy)-ethoxy]-ethoxymethyl}-benzoic Acid] the IC50 was 0.1 to 1 µM. `CNC(=O)c1c(-c2ccc(F)cc2)oc2cc(N(CCOCCOCCOCc3ccc(C(=O)O)cc3)S(C)(=O)=O)c(C3CC3)cc12` [Compound 30-7, 4-{2-[2-(2-{[5-Cyclopropyl-2-(4-fluoro-phenyl)-3-methylcarbamoyl-benzofuran-6-yl]-methanesulfonyl-amino}-ethoxy)-ethoxy]-ethoxymethyl}-benzoic acid] showed an IC50 greater than 1 µM. With `CNC(=O)c1c(-c2ccc(F)cc2)oc2cc(N(CCOCCOCCc3cccc(C(=O)O)c3)S(C)(=O)=O)c(C3CC3)cc12` [Compound 11-6B, 3-{2-[2-(2-{[5-Cyclopropyl-2-(4-fluoro-phenyl)-3-methylcarbamoyl-benzofuran-6-yl]-methanesulfonyl-amino}-ethoxy)-ethoxy]-ethyl}-benzoic Acid] the IC50 was less than 0.1 µM. `CNC(=O)c1c(-c2ccc(F)cc2)oc2cc(N(CCCOCCOCc3cccc(C(=O)/C=C(\O)C(=O)O)c3)S(C)(=O)=O)c(C3CC3)cc12` [Compound 03-8A, 4-{3-[2-(3-{[5-Cyclopropyl-2-(4-fluoro-phenyl)-3-methylcarbamoyl-benzofuran-6-yl]-methanesulfonyl-amino}-propoxy)-ethoxymethyl]-phenyl}-2-hydroxy-4-oxo-but-2-enoic Acid] showed an IC50 of 0.1 to 1 µM. In the case of `CNC(=O)c1c(-c2ccc(F)cc2)oc2cc(N(CCOCCOCCOCc3cccc(C(C)=O)c3)S(C)(=O)=O)c(C3CC3)cc12` [Compound 02-8B, 6-[(2-{2-[2-(3-Acetyl-benzyloxy)-ethoxy]-ethoxy}-ethyl)-methanesulfonyl-amino]-5-cyclopropyl-2-(4-fluoro-phenyl)-benzofuran-3-carboxylic Acid Methylamide], the IC50 is reported as greater than 1 µM. With `CNC(=O)c1c(-c2ccc(F)cc2)oc2cc(N(CCOCCOCCOCC(=O)OC(C)(C)C)S(C)(=O)=O)c(C3CC3)cc12` [Compound 23-5A, {2-[2-(2-{[5-Cyclopropyl-2-(4-fluoro-phenyl)-3-methylcarbamoyl-benzofuran-6-yl]-methanesulfonyl-amino}-ethoxy)-ethoxy]-ethoxy}-acetic Acid Tert-butyl Ester] the IC50 was greater than 1 µM. With `CNC(=O)c1c(-c2ccc(F)cc2)oc2cc(N(CCCOCCCc3ccc(C(=O)O)cc3)S(C)(=O)=O)c(C3CC3)cc12` [Compound 13-8B, 4-[3-(3-{[5-Cyclopropyl-2-(4-fluoro-phenyl)-3-methylcarbamoyl-benzofuran-6-yl]-methanesulfonyl-amino}-propoxy)-propyl]-benzoic Acid] the IC50 was 0.1 to 1 µM. `CNC(=O)c1c(-c2ccc(F)cc2)oc2cc(N(CCOCCOCCOCC(C)=O)S(C)(=O)=O)c(C3CC3)cc12` [Compound 30-1, 5-Cyclopropyl-2-(4-fluoro-phenyl)-6-[methanesulfonyl-(2-{2-[2-(2-oxo-propoxy)-ethoxy]-ethoxy}-ethyl)-amino]-benzofuran-3-carboxylic acid methylamide] showed an IC50 greater than 1 µM. `CNC(=O)c1c(-c2ccc(F)cc2)oc2cc(N(CCCCOCCc3ccc(C(=O)OC)cc3)S(C)(=O)=O)c(C3CC3)cc12` [Compound 13-7C, 4-[2-(4-{[5-Cyclopropyl-2-(4-fluoro-phenyl)-3-methylcarbamoyl-benzofuran-6-yl]-methanesulfonyl-amino}-butoxy)-ethyl]-benzoic Acid Methyl Ester] showed an IC50 of 0.1 to 1 µM. `CNC(=O)c1c(-c2ccc(F)cc2)oc2cc(N(CCOCCOCCOCCC(=O)O)S(C)(=O)=O)c(C3CC3)cc12` [Compound 24-4, 3-{2-[2-(2-{[5-Cyclopropyl-2-(4-fluoro-phenyl)-3-methylcarbamoyl-benzofuran-6-yl]-methanesulfonyl-amino}-ethoxy)-ethoxy]-ethoxy}-propionic Acid] was tested, and the IC50 was 0.1 to 1 µM. `CNC(=O)c1c(-c2ccc(F)cc2)oc2cc(N(CCOCCOCCOCc3cccc(C(=O)OC)c3)S(C)(=O)=O)c(C3CC3)cc12` [Compound 06-6F, 3-{2-[2-(2-{[5-Cyclopropyl-2-(4-fluoro-phenyl)-3-methylcarbamoyl-benzofuran-6-yl]-methanesulfonyl-amino}-ethoxy)-ethoxy]-ethoxymethyl}-benzoic acid methyl ester] gave an IC50 greater than 1 µM. `CNC(=O)c1c(-c2ccc(F)cc2)oc2cc(N(CCCOCCCc3ccc(C(=O)OC)cc3)S(C)(=O)=O)c(C3CC3)cc12` [Compound 13-7B, 4-[3-(3-{[5-Cyclopropyl-2-(4-fluoro-phenyl)-3-methylcarbamoyl-benzofuran-6-yl]-methanesulfonyl-amino}-propoxy)-propyl]-benzoic Acid Methyl Ester] gave an IC50 of 0.1 to 1 µM. With `CCOC(=O)C(C)OCCOCCOCCN(c1cc2oc(-c3ccc(F)cc3)c(C(=O)NC)c2cc1C1CC1)S(C)(=O)=O` (stereo not drawn) [Compound 30-2, 2-{2-[2-(2-{[5-Cyclopropyl-2-(4-fluoro-phenyl)-3-methylcarbamoyl-benzofuran-6-yl]-methanesulfonyl-amino}-ethoxy)-ethoxy]-ethoxy}-propionic acid ethyl ester] the IC50 was greater than 1 µM. With `CNC(=O)c1c(-c2ccc(F)cc2)oc2cc(N(CC(=O)NCC(=O)NCCCC(C)C(=O)O)S(C)(=O)=O)c(C3CC3)cc12` (stereo not drawn) [Compound 10-4B, 5-[2-(2-{[5-Cyclopropyl-2-(4-fluoro-phenyl)-3-methylcarbamoyl-benzofuran-6-yl]-methanesulfonyl-amino}-acetylamino)-acetylamino]-2-methyl-pentanoic Acid] the IC50 was greater than 1 µM. Compound `CNC(=O)c1c(-c2ccc(F)cc2)oc2cc(N(CCOCCOCc3ccccc3C(=O)OC)S(C)(=O)=O)c(C3CC3)cc12` [Compound 06-6A, 2-[2-(2-{[5-Cyclopropyl-2-(4-fluoro-phenyl)-3-methylcarbamoyl-benzofuran-6-yl]-methanesulfonyl-amino}-ethoxy)-ethoxymethyl]-benzoic Acid Methyl Ester] has an IC50 of 0.1 to 1 µM. Work on `CNC(=O)c1c(-c2ccc(F)cc2)oc2cc(N(CCOCCOCCOCc3ccc(C(=O)/C=C(\O)C(=O)O)cc3)S(C)(=O)=O)c(C3CC3)cc12` [Compound 02-10G, 4-(4-{2-[2-(2-{[5-Cyclopropyl-2-(4-fluoro-phenyl)-3-methylcarbamoyl-benzofuran-6-yl]-methanesulfonyl-amino}-ethoxy)-ethoxy]-ethoxymethyl}-phenyl)-2-hydroxy-4-oxo-but-2-enoic Acid] yielded an IC50 greater than 1 µM. `CCOC(=O)/C(O)=C/C(=O)c1ccc(COCCOCCOCCOCCN(c2cc3oc(-c4ccc(F)cc4)c(C(=O)NC)c3cc2C2CC2)S(C)(=O)=O)cc1` [Compound 02-9H, 4-[4-(2-{2-[2-(2-{[5-Cyclopropyl-2-(4-fluoro-phenyl)-3-methylcarbamoyl-benzofuran-6-yl]-methanesulfonyl-amino}-ethoxy)-ethoxy]-ethoxy}-ethoxymethyl)-phenyl]-2-hydroxy-4-oxo-but-2-enoic Acid Ethyl Ester] gave an IC50 greater than 1 µM. `CNC(=O)c1c(-c2ccc(F)cc2)oc2cc(N(CCOCCOCCOc3cccc(C(=O)O)c3)S(C)(=O)=O)c(C3CC3)cc12` [Compound 14-7B, 3-{2-[2-(2-{[5-Cyclopropyl-2-(4-fluoro-phenyl)-3-methylcarbamoyl-benzofuran-6-yl]-methanesulfonyl-amino}-ethoxy)-ethoxy]-ethoxy}-benzoic Acid] gave an IC50 of 0.1 to 1 µM. In the case of `CNC(=O)c1c(-c2ccc(F)cc2)oc2cc(N(CCOCCOCc3ccc(C(=O)OC)c(C)c3)S(C)(=O)=O)c(C3CC3)cc12` [Compound 18-9A, 4-[2-(2-{[5-Cyclopropyl-2-(4-fluoro-phenyl)-3-methylcarbamoyl-benzofuran-6-yl]-methanesulfonyl-amino}-ethoxy)-ethoxymethyl]-2-methyl-benzoic Acid Methyl Ester], the IC50 is reported as greater than 1 µM. For `CNC(=O)c1c(-c2ccc(F)cc2)oc2cc(N(CCOCCOCCOCc3cccc(C(=O)/C=C(\O)C(=O)O)c3)S(C)(=O)=O)c(C3CC3)cc12` [Compound 02-10B, 4-(3-{2-[2-(2-{[5-Cyclopropyl-2-(4-fluoro-phenyl)-3-methylcarbamoyl-benzofuran-6-yl]-methanesulfonyl-amino}-ethoxy)-ethoxy]-ethoxymethyl}-phenyl)-2-hydroxy-4-oxo-but-2-enoic Acid], the IC50 was greater than 1 µM. `CNC(=O)c1c(-c2ccc(F)cc2)oc2cc(N(CCOCCOCCCc3ccc(C(=O)O)cc3)S(C)(=O)=O)c(C3CC3)cc12` [Compound 12-7C, 4-{3-[2-(2-{[5-Cyclopropyl-2-(4-fluoro-phenyl)-3-methylcarbamoyl-benzofuran-6-yl]-methanesulfonyl-amino}-ethoxy)-ethoxy]-propyl}-benzoic Acid] was tested, and the IC50 was 0.1 to 1 µM.
